According to patent US11708366B2, “Heteroaryl substituted spiropiperidinyl derivatives and pharmaceutical uses thereof” (Novartis AG, priority 2020, dated 2023):
Where two headings read alike, the source gives them in different places.

Target: LTC4S (Homo sapiens (Human), UniProt Q16873)
Test: Human whole blood HTRF assay (LTC4 release after calcium ionophore A23187)
Format: cell-based
Settings: calcium ionophore A23187 stimulation, LTC4 by HTRF
Experimental: B. Human Whole Blood HTRF Assay
LTC4 synthase catalyzes the conversion of Leukotriene A4 (LTA4) to Leukotriene C4 (LTC4) in the presence of reduced glutathione (GSH) as a co-substrate. For testing the inhibition of LTC4S, compounds are prepared for either eight-point or sixteen-point dose response studies in 384-well Labcyte low dead volume (LDV) plates. For eight-point dose response studies, compounds are diluted 1:5 starting at 1 μM concentration in 90% DMSO. […] Compounds are studied in duplicates. Ten wells are filled with 90% DMSO which correspond to the stimulated and unstimulated control wells. […] The morning of the assay, whole blood is collected from three human donors. Donors must be non-smokers and must not have taken NSAIDs within the 48 hours prior to blood collection. The amount of blood collected per donor depends on the amount of compounds to be tested and the dose response format in which they are to be studied (about 8 mL of whole blood for either 22 compounds in 8-point dose response format or 11 compounds in 16-point dose response format). […] 50 μL of diluted blood are then dispensed into each assay plate well with pre-dispensed compounds and DMSO for the stimulated and unstimulated controls using a Thermo Scientific™ Multidrop™ Combi reagent dispenser, and incubated at 37° C. for 4 hours. Calcium ionophore A23187 is used to induce a rapid increase in intracellular levels of Ca^2+. The Ca^2+ functions as a universal second messenger in various immune cells, such as T cells, B cells and mast cells, and is used to induce degranulation and release of eicosanoids, including LTC4, by cells contained in the whole blood samples. […] All but the unstimulated control wells are subsequently stimulated by dispensing 1 μL of the 0.5 mg/mL calcium ionophore suspension using the Thermo Scientific™ Multidrop™ Combi reagent dispenser. Plates are incubated for 15 minutes at 37° C. Plates are then centrifuged at 300 g for 10 minutes at room temperature to pellet blood cells and stop the reaction. […] Plates are sealed and stored at −80° C.
In order to measure the amount of LTC4 released by cells in the human blood samples during calcium ionophore stimulation, supernatants are analyzed using the Cisbio LTC4 homogeneous time-resolved FRET (HTRF) kit (Cisbio #64LC4PEH). […] Ten serially diluted standard curve solutions are also dispensed in duplicate into each plate as instructed in the protocol. Blank controls and cryptate control wells are also prepared. Then, 5 μL of anti-LTC4-d2 working solution are dispensed into all the wells, but the cryptate control wells. Subsequently, 5 μL of anti-LTC4-Eu3+ cryptate working solution are dispensed into all the wells. Plates are then covered with a lid and incubated at room temperature for one hour with gentle orbital shaking (˜450 rpm). […] HTRF ratios are calculated for each well by dividing the 665 nm intensity by the 620 nm intensity, and multiplying the resulting ratio by 10,000. LTC4 standard curves are interpolated for each plate and used to convert the HTRF ratio readouts into the amount of LTC4 present in each well (in ng/mL). Parametric curve fitting is used to obtain inhibition curves and IC50 values.

[1] = human whole blood diluted 1:3, 4 h incubation, read-out: human whole blood HTRF IC50
[2] = human whole blood HTRF IC50, human whole blood diluted 1:3, 4 h incubation

Compound	IC50 [1] [nM]	IC50 [2] [nM]
Nc1nc(N2CCC3(CCCC(=O)N3c3ccc(F)c(F)c3)CC2)cc(-n2cc(C(F)(F)F)cn2)n1 [Example 64, 9-(2-amino-6-(4-(trifluoromethyl)-1H-pyrazol-1-yl)pyrimidin-4-yl)-1-(3,4-difluorophenyl)-1,9-diazaspiro[5.5]undecane-2-one]	2	
O=C1CCCC2(CCN(c3cc(O[C@@H]4COC[C@H]4F)nc(CO)n3)CC2)N1c1ccc(F)c(F)c1 (racemic) [Example 108, rac-1-(3,4-diflurophenyl)-9-(6-(((3R,4R)-4-fluorotetrahydrofuran-3-yl)oxy)-2-(hydroxymethyl)pyrimidin-4-yl)-1,9-diazaspiro[5.5]undecan-2-one]	22	
Nc1nc(OC2CCOCC2)cc(N2CCC3(CCCC(=O)N3c3ccc(F)c(F)c3)CC2)n1 [Example 101, 9-(2-amino-6-((tetrahydro-2H-pyran-4-yl)oxy)pyrimidin-4-yl)-1-(3,4-difluorophenyl)-1,9-diazaspiro[5.5]undecan-2-one]	5	
CCCOc1ccnc(N2CCC3(CCCC(=O)N3c3ccc(F)c(F)c3)CC2)n1 [Example 85, 1-(3,4-difluorophenyl)-9-(4-propoxypyrimidin-2-yl)-1,9-diazaspiro[5.5]undecan-2-one]	430	
CC(C)(O)c1nc(N2CCC3(CCCC(=O)N3c3ccc(F)c(F)c3)CC2)cc(-n2cc(C(F)(F)F)cn2)n1 [Example 65, 1-(3,4-difluorophenyl)-9-(2-(2-hydroxypropan-2-yl)-6-(4-(trifluoromethyl)-1H-pyrazol-1-yl)pyrimidin-4-yl)1,9-diazaspiro[5.5]undecane-2-one]	1	
O=C1CCCC2(CCN(c3cc(O[C@H]4CCOC4)nc(CO)n3)CC2)N1c1ccc(F)c(F)c1 [Example 109, (S)-1-(3,4-difluorophenyl)-9-(2-(hydroxymethyl)-6-((tetrahydrofuran-3-yl)oxy)pyrimidin-4-yl)-1,9-diazaspiro[5.5]undecan-2-one]	15	
COc1nc(N2CCC3(CCCC(=O)N3c3ccc(F)c(F)c3)CC2)cc(-n2cccn2)n1 [Example 50, 1-(3,4-difluorophenyl)-9-(2-methoxy-6-(1H-pyrazol-1-yl)pyrimidin-4-yl)-1,9-diazaspiro[5.5]undecan-2-one]	45	
[2H]C1(Oc2cc(N3CCC4(CCCC(=O)N4c4ccc(F)c(F)c4)CC3)nc(N)n2)CCOCC1 [Example 103, 9-(2-amino-6-((tetrahydro-2H-pyran-4-yl-4-d)oxy)pyrimidin-4-yl)-1-(3,4-difluorophenyl)-1,9-diazaspiro[5.5]undecan-2-one]	8	
O=C1CCCC2(CCN(c3cc(O[C@@H]4CCOC4)nc(Cl)n3)CC2)N1c1ccc(F)c(F)c1 [Example 70, (R)-9-(2-chloro-6-((tetrahydrofuran-3-yl)oxy)pyrimidin-4-yl)-1-(3,4-difluorophenyl)-1,9-diazaspiro[5.5]undecan-2-one]	110	
Nc1nc(N2CCC3(CCCC(=O)N3c3ccc(F)c(F)c3)CC2)cc(N2C[C@H]3C[C@@H]2CO3)n1 (racemic) [Example 46, rac-9-(2-amino-6-((1R,4R)-2-oxa-5-azabicyclo[2.2.1]heptan-5-yl)pyrimidin-4-yl)-1-(3,4-difluorophenyl)-1,9-diazaspiro[5.5]undecan-2-one]	490	
O=C1CCCC2(CCN(c3cc(-c4ccc(F)cc4)n[nH]c3=O)CC2)N1c1ccc(F)c(F)c1 [Example 11, 1-(3,4-difluorophenyl)-9-(6-(4-fluorophenyl)-3-oxo-2,3-dihydropyridazin-4-yl)-1,9-diazaspiro[5.5]undecane-2-one]	6	
O=C1CCCC2(CCN(c3cc(-n4cc(C(F)(F)F)cn4)ncn3)CC2)N1c1ccc(F)c(F)c1 [Example 47, 1-(3,4-difluorophenyl)-9-(6-(4-(trifluoromethyl)-1H-pyrazol-1-yl)pyrimidin-4-yl)-1,9-diazaspiro[5.5]undecan-2-one]	7	
Nc1nc(O[C@H](C2COC2)C(F)(F)F)cc(N2CCC3(CCCC(=O)N3c3ccc(F)c(F)c3)CC2)n1 (single isomer, unassigned) [Example 89b, (R)-9-(2-amino-6-(2,2,2-trifluoro-1-(oxetan-3-yl)ethoxy)pyrimidin-4-yl)-1-(3,4-difluorophenyl)-1,9-diazaspiro[5.5]undecan-2-one or (S)-9-(2-amino-6-(2,2,2-trifluoro-1-(oxetan-3-yl)ethoxy)pyrimidin-4-yl)-1-(3,4-difluorophenyl)-1,9-diazaspiro[5.5]undecan-2-one]	5	
O=C1CCCC2(CCN(c3cc(-n4cc(C(F)(F)F)cn4)n[nH]c3=O)CC2)N1c1ccc(F)c(F)c1 [Example 12, 1-(3,4-difluorophenyl)-9-(3-oxo-6-(4-(trifluoromethyl)-1H-pyrazol-1-yl)-2,3-dihydropyridazin-4-yl)-1,9-diazaspiro [5.5] undecane-2-one]	2	
Nc1nc(OC2CCOCC2)cc(N2CCC3(CC2)C[C@H](F)CC(=O)N3c2ccc(F)c(F)c2)n1 (single isomer, unassigned) [Example 116a, (R)-9-(2-amino-6-((tetrahydro-2H-pyran-4-yl)oxy)pyrimidin-4-yl)-1-(3,4-difluorophenyl)-4-fluoro-1,9-diazaspiro[5.5]undecan-2-one, or (S)-9-(2-amino-6-((tetrahydro-2H-pyran-4-yl)oxy)pyrimidin-4-yl)-1-(3,4-difluorophenyl)-4-fluoro-1,9-diazaspiro[5.5]undecan-2-one]	13	
O=C1CCCC2(CCN(c3cc(-c4ncco4)ncn3)CC2)N1c1ccc(F)c(F)c1 [Example 62, 1-(3,4-difluorophenyl)-9-(6-(oxazol-2-yl)pyrimidin-4-yl)-1,9-diazaspiro[5.5]undecan-2-one]	410	
O=C1CCCC2(CCN(c3cc(OC4CCOCC4)n[nH]c3=O)CC2)N1c1ccc(F)c(F)c1 [Example 16, 1-(3,4-difluorophenyl)-9-(3-oxo-6-((tetrahydro-2H-pyran-4-yl)oxy)-2,3-dihydropyridazin-4-yl)-1,9-diazaspiro[5.5]undecan-2-one]		16
CC(Oc1cc(N2CCC3(CCCC(=O)N3c3ccc(F)c(F)c3)CC2)nc(N)n1)C(F)(F)F (racemic) [Example 95, rac-9-(2-amino-6-((1,1,1-trifluoropropan-2-yl)oxy)pyrimidn-4-yl)-1-(3,4-difluorophienyl)-1,9-diazaspiro[5.5]undecan-2-one]	2	
Nc1nc(N2CCC3(CCCC(=O)N3c3ccc(F)c(F)c3)CC2)c(F)c(N2CCC(O)(C(F)(F)F)CC2)n1 [Example 41, 9-(2-amino-5-fluoro-6-(4-hydroxy-4-(trifluoromethyl)piperidin-1-yl)pyrimidin-4-yl)-1-(3,4-difluorophenyl)-1,9-diazaspiro[5.5]undecan-2-one]	5	
O=C1CCCC2(CCN(c3cc(OC4CCOCC4)ncn3)CC2)N1c1ccc(F)c(F)c1 [Example 87, 1-(3,4-difluorophenyl)-9-(6-((tetrahydro-2H-pyran-4-yl)oxy)pyrimidin-4-yl)-1,9-diazaspiro[5.5]undecan-2-one]	7	
O=C1CCCC2(CCN(c3cc(-n4cccn4)nc(N4CCOCC4)n3)CC2)N1c1ccc(F)c(F)c1 [Example 52, 1-(3,4-difluorophenyl)-9-(2-morpholino-6-(1H-pyrazol-1-yl)pyrimidin-4-yl)-1,9-diazaspiro[5.5]undecan-2-one]	29	
O=C1CCCC2(CCN(c3cc(-n4cc(Cl)cn4)ncn3)CC2)N1c1ccc(F)c(F)c1 [Example 55, 9-(6-(4-chloro-1H-pyrazol-1-yl)pyrimidin-4-yl)-1-(3,4-difluorophenyl)-1,9-diazaspiro[5.5]undecan-2-one]	6	
O=C1CCCC2(CCN(c3cc(OC4CCOCC4)nn(Cc4ccccc4)c3=O)CC2)N1c1ccc(F)c(F)c1 [Example 15a, 9-(2-benzyl-3-oxo-6-((tetrahydro-2H-pyran-4-yl)oxy)-2,3-dihydropyridazin-4-yl)-1-(3,4-difluorophenyl)-1,9-diazaspiro[5.5]undecan-2-one]		1
